Measurements from paper PMC8288134, “Synthesis, potential antitumor activity, cell cycle analysis, and multitarget mechanisms of novel hydrazones incorporating a 4-methylsulfonylbenzene scaffold: a molecular docking study” (Journal of Enzyme Inhibition and Medicinal Chemistry, 2021).
Like-named read-outs stand apart in the source and are kept apart here.

Key:
MOLT-4 = experiment: NCI antitumor screen (SRB); assay type: cell-based; settings: Homo sapiens, one dose 10 µM, read-out: Growth inhibition percentage (GI%)
OVCAR-8 = experiment: NCI antitumor screen (SRB); assay type: cell-based; settings: Homo sapiens, one dose 10 µM, read-out: Growth inhibition percentage (GI%)
NCI-H522 = experiment: NCI antitumor screen (SRB); assay type: cell-based; settings: Homo sapiens
HL-60(TB) = experiment: cells; assay type: cell-based, human; settings: Homo sapiens, HL-60, HL-60(TB); one dose 10 µM; read-out: Growth inhibition percentage (GI%)
HOP-62 = experiment: NCI antitumor screen (SRB); assay type: cell-based; settings: Homo sapiens, HOP-62, read-out: Growth inhibition percentage (GI%)
A549/ATCC = experiment: NCI antitumor screen (SRB); assay type: cell-based; settings: Homo sapiens, one dose 10 µM, read-out: Growth inhibition percentage (GI%)
K-562 = experiment: NCI antitumor screen (SRB); assay type: cell-based; settings: Homo sapiens, K562, read-out: Growth inhibition percentage (GI%)
SK-MEL-2 = experiment: NCI antitumor screen (SRB); assay type: cell-based; settings: Homo sapiens
U251 = experiment: NCI antitumor screen (SRB); assay type: cell-based; settings: Homo sapiens, U-251, one dose 10 µM, read-out: Growth inhibition percentage (GI%)
UACC-257 = experiment: NCI antitumor screen (SRB); assay type: cell-based, human; settings: Homo sapiens, one dose 10 µM, read-out: Growth inhibition percentage (GI%)
[1] = test system: full panel of 59 cancer cell lines; experiment: NCI antitumor screen, full panel; settings: one dose 10 µM
T-47D = experiment: NCI antitumor screen (SRB); assay type: cell-based; settings: Homo sapiens, T47D, one dose 10 µM, read-out: Growth inhibition percentage (GI%)
PC-3 = experiment: NCI antitumor screen (SRB); assay type: cell-based; settings: Homo sapiens, one dose 10 µM, read-out: Growth inhibition percentage (GI%)
CCRF-CEM = experiment: NCI antitumor screen (SRB); assay type: cell-based; settings: Homo sapiens, one dose 10 µM, read-out: Growth inhibition percentage (GI%)
UO-31 = experiment: NCI antitumor screen (SRB); assay type: cell-based, human; settings: Homo sapiens, one dose 10 µM, read-out: Growth inhibition percentage (GI%)
SK-OV-3 = experiment: NCI antitumor screen (SRB); assay type: cell-based; settings: Homo sapiens, one dose 10 µM, read-out: Growth inhibition percentage (GI%)
A498 = experiment: NCI antitumor screen (SRB); assay type: cell-based; settings: Homo sapiens, one dose 10 µM, read-out: Growth inhibition percentage (GI%)
HT29 = experiment: NCI antitumor screen (SRB); assay type: cell-based; settings: Homo sapiens, HT-29, one dose 10 µM, read-out: Growth inhibition percentage (GI%)
NCI-H226 = experiment: NCI antitumor screen (SRB); assay type: cell-based; settings: Homo sapiens, one dose 10 µM, read-out: Growth inhibition percentage (GI%)
SR = experiment: NCI antitumor screen (SRB); assay type: cell-based; settings: Homo sapiens, one dose 10 µM, read-out: Growth inhibition percentage (GI%)
HCT-116 = experiment: NCI antitumor screen (SRB); assay type: cell-based; settings: Homo sapiens, read-out: Growth inhibition percentage (GI%)
SNB-75 = experiment: NCI antitumor screen (SRB); assay type: cell-based; settings: Homo sapiens, one dose 10 µM, read-out: Growth inhibition percentage (GI%)
CAKI-1 = experiment: NCI antitumor screen (SRB); assay type: cell-based; settings: Homo sapiens, one dose 10 µM, read-out: Growth inhibition percentage (GI%)
[2] = NCI-H522, read-out: Growth inhibition percentage (GI%)
[3] = SK-MEL-2, read-out: Growth inhibition percentage (GI%)

Structure (SMILES) | inhibition at 10 µM (MOLT-4) [%] | inhibition at 10 µM (NCI-H522; [2]) [%] | inhibition at 10 µM (HL-60(TB)) [%] | inhibition at 10 µM (HOP-62) [%] | inhibition at 10 µM (A549/ATCC) [%] | inhibition at 10 µM (K-562) [%] | inhibition at 10 µM (SK-MEL-2; [3]) [%] | inhibition at 10 µM (UACC-257; UACC-257) [%] | PCE: positive cytotoxic effect (number of cell lines with GI 10 to 100% / total number of cell lines) [1] | inhibition at 10 µM (PC-3) [%] | inhibition at 10 µM (CCRF-CEM) [%] | inhibition at 10 µM (UO-31; UO-31) [%] | inhibition at 10 µM (HT29) [%] | other results
CS(=O)(=O)c1ccc(C(=O)NN=Cc2ccccc2)cc1 [Compound 4, N'-Benzylidene-4-(methylsulfonyl)benzohydrazide] | 25.5 | 42.1 | 60.3 | 12 | 28.5 | 11.3 | 21.5 | 44.2 | 10/59 |  |  |  |  | inhibition at 10 µM (OVCAR-8): 15.1%; inhibition at 10 µM (U251): 20.4%
CS(=O)(=O)c1ccc(C(=O)NN=Cc2cccnc2)cc1 [Compound 5, 4-(Methylsulfonyl)-N'-(pyridin-3-ylmethylene)benzohydrazide] |  | 15.1 | 20.5 | 16.5 | 10.6 | 18.8 |  |  | 13/59 | 17.9 | 11.1 | 16.3 | 13.3 | inhibition at 10 µM (T-47D): 13.7%; inhibition at 10 µM (SK-OV-3): 16.9%; inhibition at 10 µM (A498): 11.2%; inhibition at 10 µM (NCI-H226): 11.9%
CS(=O)(=O)c1ccc(C(=O)NN=Cc2ccc(Cl)cc2)cc1 [Compound 7, N'-(4-Chlorobenzylidene)-4-(methylsulfonyl)benzohydrazide] | 29.4 | 15.7 | 52.1 |  |  | 14 | 12.8 |  | 7/59 | 22.8 |  |  |  | inhibition at 10 µM (A498): 12.3%
CS(=O)(=O)c1ccc(C(=O)NN=Cc2ccc(F)cc2)cc1 [Compound 8, N'-(4-Fluorobenzylidene)-4-(methylsulfonyl)benzohydrazide] | 23.9 | 15.9 | 23.1 |  | 11.1 | 13.6 |  | 18.4 | 9/59 |  | 11.8 |  |  | inhibition at 10 µM (SR): 20.2%; inhibition at 10 µM (HCT-116): 10.8%
COc1ccc(C=NNC(=O)c2ccc(S(C)(=O)=O)cc2)cc1 [Compound 10, N'-(4-Methoxybenzylidene)-4-(methylsulfonyl)benzohydrazide] | 21.1 | 20.8 | 42.9 |  | 29.8 |  | 11.8 | 29 | 11/59 | 13.8 | 10.6 |  | 10.8 | inhibition at 10 µM (OVCAR-8): 11.3%; inhibition at 10 µM (NCI-H226): 13.4%
CS(=O)(=O)c1ccc(C(=O)N/N=C/c2ccc(O)cc2)cc1 [Compound 11] | 32.5 | 11.7 | 50.5 |  |  | 26.2 |  |  | 5/59 | 10.9 |  |  |  | 
CN(C)c1ccc(C=NNC(=O)c2ccc(S(C)(=O)=O)cc2)cc1 [Compound 12, N'-(4-(Dimethylamino)benzylidene)-4-(methylsulfonyl)benzohydrazide] | 29.8 | 40.4 | 38 | 11.4 | 28.4 | 17.2 |  | 39.2 | 9/59 |  |  | 11.2 | 20.5 | 
CS(=O)(=O)c1ccc(C(=O)NN=Cc2ccccc2Cl)cc1 [Compound 13, N'-(2-Chlorobenzylidene)-4-(methylsulfonyl)benzohydrazide] | 32.3 |  | 47.7 | 12.7 | 21.6 | 32.5 |  | 35.5 | 10/59 |  |  | 15.7 |  | inhibition at 10 µM (T-47D): 12.5%; inhibition at 10 µM (SNB-75): 15.1%; inhibition at 10 µM (SK-OV-3): 11.7%
CS(=O)(=O)c1ccc(C(=O)NN=Cc2ccccc2F)cc1 [Compound 14, N'-(2-Fluorobenzylidene)-4-(methylsulfonyl)benzohydrazide] | 26.4 | 26 | 36 | 15.8 | 29.3 | 25.7 |  | 42.4 | 12/59 |  |  |  | 18.6 | inhibition at 10 µM (OVCAR-8): 14.5%; inhibition at 10 µM (SR): 49.2%; inhibition at 10 µM (T-47D): 11.8%; inhibition at 10 µM (CAKI-1): 11.7%
COc1ccccc1C=NNC(=O)c1ccc(S(C)(=O)=O)cc1 [Compound 15, N'-(2-Methoxybenzylidene)-4-(methylsulfonyl)benzohydrazide] | 11.6 |  | 36.5 | 18.9 | 11.9 | 23.4 |  | 10.1 | 14/59 | 19.1 | 16.1 | 14.4 |  | inhibition at 10 µM (SR): 15.6%; inhibition at 10 µM (T-47D): 18.2%; inhibition at 10 µM (HCT-116): 10.7%; inhibition at 10 µM (SK-OV-3): 17.1%; inhibition at 10 µM (NCI-H226): 10.3%
COc1cc(/C=N/NC(=O)c2ccc(S(C)(=O)=O)cc2)ccc1O [Compound 19] | 30.9 | 37.7 | 67.3 | 12.1 | 29.3 | 27.2 | 13.9 | 48.4 | 13/59 |  |  | 12.8 | 17.5 | inhibition at 10 µM (OVCAR-8): 19.6%; inhibition at 10 µM (SR): 18.5%; inhibition at 10 µM (U251): 13%
COc1ccc(C=NNC(=O)c2ccc(S(C)(=O)=O)cc2)cc1OC [Compound 21, N'-(3,4-Dimethoxybenzylidene)-4-(methylsulfonyl)benzohydrazide] | 34.1 | 15.7 | 45.9 |  |  | 19.1 |  |  | 8/59 | 11.5 |  |  |  | inhibition at 10 µM (SNB-75): 14.2%; inhibition at 10 µM (HCT-116): 11%; inhibition at 10 µM (CAKI-1): 11%
CS(=O)(=O)c1ccc(C(=O)NN=Cc2ccc3c(c2)OCO3)cc1 [Compound 22, N'-(Benzo[d][1,3]dioxol-5-ylmethylene)-4-(methylsulfonyl)benzohydrazide] | 29.9 | 14 | 43 |  | 32.3 | 14.5 | 10.9 | 40.9 | 9/59 |  | 13 |  | 11 | 
COc1cc(OC)c(OC)cc1/C=N/NC(=O)c1ccc(S(C)(=O)=O)cc1 [Compound 24] | 21.4 |  |  |  | 17.1 |  |  |  | 8/59 | 18.6 |  |  | 17.9 | inhibition at 10 µM (NCI-H522; NCI-H522, one dose 10 µM, read-out: Growth inhibition percentage (GI%)): 39.8%; inhibition at 10 µM (SK-MEL-2; SK-MEL-2, one dose 10 µM, read-out: Growth inhibition percentage (GI%)): 11.7%; inhibition at 10 µM (UO-31; UO-31, UO-31): 10.5%; inhibition at 10 µM (UACC-257; UACC-257, UACC-257): 21.6%
